Biological target: T1, PPARα (Homo sapiens, UniProt Q07869)
T1 construct: gene PPARA
T1 sequence (Q07869 1-468): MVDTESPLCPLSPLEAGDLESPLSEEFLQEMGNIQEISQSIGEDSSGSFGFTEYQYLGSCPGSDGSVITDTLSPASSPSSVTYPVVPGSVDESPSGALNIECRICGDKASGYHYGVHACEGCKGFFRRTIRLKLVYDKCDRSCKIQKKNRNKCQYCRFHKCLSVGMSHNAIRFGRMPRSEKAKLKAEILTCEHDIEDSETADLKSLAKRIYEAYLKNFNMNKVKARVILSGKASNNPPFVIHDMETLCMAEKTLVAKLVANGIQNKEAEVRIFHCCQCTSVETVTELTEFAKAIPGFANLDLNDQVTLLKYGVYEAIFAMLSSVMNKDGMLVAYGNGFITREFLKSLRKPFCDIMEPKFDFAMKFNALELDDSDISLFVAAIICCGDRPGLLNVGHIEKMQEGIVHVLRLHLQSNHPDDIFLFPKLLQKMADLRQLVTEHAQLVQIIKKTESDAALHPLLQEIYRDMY
Assay: SPR (OpenSPR) with recombinant human PPARα immobilized by amine coupling
Format: binding

Question: `CCCCC(CC)COC(=O)c1ccccc1C(=O)O` (stereo not shown) [MEHP, mono(2-ethylhexyl) phthalate] was tested. Which Kd did it give?
Answer: Its Kd is 627 µM.

From publication PMC8754100, “Role of Hepatocyte- and Macrophage-Specific PPARγ in Hepatotoxicity Induced by Diethylhexyl Phthalate in Mice” (Environmental Health Perspectives, 2022)
